What all share (assay type): biochemical
Holding throughout (conditions): HotSpot functional assay, isolated kinase enzyme, 33P-ATP

Test [1] has as its target T1, FLT3 (Homo sapiens, UniProt P36888).
T1 sequence (P36888 27-993): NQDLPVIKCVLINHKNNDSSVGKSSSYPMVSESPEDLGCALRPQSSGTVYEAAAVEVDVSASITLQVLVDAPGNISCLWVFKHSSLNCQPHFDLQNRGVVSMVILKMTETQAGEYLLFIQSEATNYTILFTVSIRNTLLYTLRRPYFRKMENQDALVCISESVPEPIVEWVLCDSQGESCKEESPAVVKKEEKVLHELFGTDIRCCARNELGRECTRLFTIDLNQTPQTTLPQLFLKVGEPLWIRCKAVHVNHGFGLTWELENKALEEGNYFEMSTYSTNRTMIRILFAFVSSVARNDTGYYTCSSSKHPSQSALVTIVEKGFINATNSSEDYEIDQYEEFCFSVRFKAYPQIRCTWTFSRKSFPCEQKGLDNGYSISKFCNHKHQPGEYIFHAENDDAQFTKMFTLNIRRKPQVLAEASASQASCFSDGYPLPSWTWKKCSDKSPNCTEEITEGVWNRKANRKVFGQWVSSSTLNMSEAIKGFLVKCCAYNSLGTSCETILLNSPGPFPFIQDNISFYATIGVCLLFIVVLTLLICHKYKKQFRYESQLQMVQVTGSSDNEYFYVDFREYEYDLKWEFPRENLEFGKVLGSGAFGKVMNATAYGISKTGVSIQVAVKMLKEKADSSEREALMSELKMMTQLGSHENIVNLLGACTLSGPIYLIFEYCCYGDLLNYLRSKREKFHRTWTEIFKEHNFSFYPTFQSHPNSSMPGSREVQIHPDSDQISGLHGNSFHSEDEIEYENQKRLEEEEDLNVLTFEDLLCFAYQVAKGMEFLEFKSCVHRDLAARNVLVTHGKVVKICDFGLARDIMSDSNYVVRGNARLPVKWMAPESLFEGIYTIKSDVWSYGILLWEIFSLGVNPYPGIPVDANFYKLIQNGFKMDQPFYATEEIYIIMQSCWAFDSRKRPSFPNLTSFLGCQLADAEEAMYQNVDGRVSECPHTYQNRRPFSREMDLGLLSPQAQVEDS
The test is described as follows: RBC HotSpot Kinase Assay, FLT3. Further details: purchased RBC (Reaction Biology) HotSpot assay. From the text: (§1) This assay uses the isolated kinase enzyme. This assay is very useful for determining competition of the inhibitor for ATP and/or substrates and for measuring the kinetics of enzyme inhibition. […] Unlike kinase binding assays that measure competition for ATP, the HotSpot Kinase Assay is a functional assay that measures catalytic activity; as such it measures relative functional potency regardless of the mechanism of enzyme inhibition. This assay uses the form of the various enzymes that are easiest to express, which may not necessarily be the form of the enzyme that exist in the cell. (Sometimes the carboxy terminus has been truncated to aid in expression, or, if it is a receptor kinase, the enzyme itself is isolated from the other parts of the receptor that are involved in regulating kinase activity.)
(§2) The reagent used was as follows: Base Reaction buffer; 20 mM Hepes (pH 7.5), 10 mM MgCl2, 1 mM EGTA, 0.01% Brij35, 0.02 mg/mi BSA, 0.1 mM Na3VO4, 2 mM DTT, 1% DMSO. Required cofactors were added individually to each kinase reaction.
(§3) The reaction procedure was as follows: • 1) Substrates were prepared in freshly prepared Reaction Buffer. • 2) Any required cofactors were delivered to the substrate solution above. • 3) Kinase was delivered into the substrate solution and gently mixed. • 4) Compounds were delivered in 100% DMSO into the kinase reaction mixture by Acoustic technology (Echo550, nanoliter range), followed by incubation for 20 min at room temp. • 5) ^33P-ATP was delivered into the reaction mixture to initiate the reaction. • 6) The mixture was incubated for 2 hours at room temperature. • 7) Kinase activity was detected by P81 filter-binding method.

In test [2] the target is T2, IRAK4 (Homo sapiens, UniProt Q9NWZ3).
T2 sequence (Q9NWZ3 1-460): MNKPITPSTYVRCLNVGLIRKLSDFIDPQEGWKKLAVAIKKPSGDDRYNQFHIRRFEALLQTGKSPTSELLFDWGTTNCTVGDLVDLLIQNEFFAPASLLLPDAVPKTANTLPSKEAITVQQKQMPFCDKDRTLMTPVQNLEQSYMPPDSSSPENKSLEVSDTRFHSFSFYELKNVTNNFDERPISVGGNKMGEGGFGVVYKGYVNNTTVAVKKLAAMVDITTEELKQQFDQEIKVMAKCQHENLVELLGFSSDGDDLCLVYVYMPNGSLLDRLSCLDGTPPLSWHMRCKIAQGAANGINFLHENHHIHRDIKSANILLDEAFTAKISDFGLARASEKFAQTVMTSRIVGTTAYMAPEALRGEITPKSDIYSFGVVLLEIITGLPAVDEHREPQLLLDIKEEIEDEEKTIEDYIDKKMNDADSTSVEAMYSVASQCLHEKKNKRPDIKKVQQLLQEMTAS
The test is described as follows: RBC HotSpot Kinase Assay, IRAK4. Details: purchased RBC (Reaction Biology) HotSpot assay.
Source text: as §1, §2, §3

The target in test [3] is T3, IRAK1 (Homo sapiens, UniProt P51617).
T3 construct: purchased RBC (Reaction Biology) HotSpot assay
T3 sequence (P51617 whole entry): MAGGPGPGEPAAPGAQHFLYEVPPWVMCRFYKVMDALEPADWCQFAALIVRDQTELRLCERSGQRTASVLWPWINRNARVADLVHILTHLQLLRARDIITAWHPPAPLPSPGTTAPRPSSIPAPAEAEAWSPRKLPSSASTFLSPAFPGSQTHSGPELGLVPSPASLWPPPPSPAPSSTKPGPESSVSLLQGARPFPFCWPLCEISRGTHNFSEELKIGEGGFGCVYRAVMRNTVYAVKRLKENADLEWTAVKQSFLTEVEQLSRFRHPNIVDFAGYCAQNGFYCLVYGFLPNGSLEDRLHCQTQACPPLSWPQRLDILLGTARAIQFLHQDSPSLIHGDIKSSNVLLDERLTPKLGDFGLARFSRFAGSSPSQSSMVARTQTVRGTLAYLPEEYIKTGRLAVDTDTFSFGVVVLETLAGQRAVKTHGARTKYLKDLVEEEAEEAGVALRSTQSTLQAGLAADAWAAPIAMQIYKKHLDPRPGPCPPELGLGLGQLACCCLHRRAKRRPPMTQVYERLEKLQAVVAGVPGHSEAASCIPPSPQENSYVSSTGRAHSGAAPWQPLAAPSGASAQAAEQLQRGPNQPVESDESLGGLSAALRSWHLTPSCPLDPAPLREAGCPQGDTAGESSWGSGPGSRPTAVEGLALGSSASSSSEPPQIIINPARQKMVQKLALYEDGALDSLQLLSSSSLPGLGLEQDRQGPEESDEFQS
The test is described as follows: RBC HotSpot Kinase Assay, IRAK1.
Source text: as §1, §2, §3

pIC50: −log10 of the molar value.

As a reminder, the pIC50 is the negative decadic logarithm of the IC50, by convention in mol/L. Read a high pIC50 as a low IC50.

For the compound `COc1cc2ncc(-c3nc(N[C@H]4CNC[C@@H]4F)c(F)cc3F)n2nc1C12CC(C1)C2` [Compound 66a, 6-(6-(bicyclo[1.1.1]pentan-1-yl)-7-methoxyimidazo[1,2-b]pyridazin-3-yl)-3,5-difluoro-N-((3S,4S)-4-fluoropyrrolidin-3-yl)pyridin-2-amine], the figures for the pIC50 in test [1], in test [2] and in test [3] were above 9.30, 8.70 and 7.68, respectively.

For the compound `COc1cc2ncc(-c3nc(N[C@@H]4CCCNC4)c(F)cc3F)n2nc1C1CCCC1` [Compound 17a, (R)-6-(6-cyclopentyl-7-methoxyimidazo[1,2-b]pyridazin-3-yl)-3,5-difluoro-N-(piperidin-3-yl)pyridin-2-amine], the results for the pIC50 in test [1], in test [2] and in test [3] were above 9.30, 8.70 and 8.15, respectively.

On to `COc1ccc(N[C@H]2CNC[C@@H]2F)nc1-c1cnc2cc(OC)c(C3CC3)nn12` [Compound 36a, 6-(6-cyclopropyl-7-methoxyimidazo[1,2-b]pyridazin-3-yl)-N-((3S,4S)-4-fluoropyrrolidin-3-yl)-5-methoxypyridin-2-amine], for which the pIC50 in test [1] was 6.98; in test [2], 6.47; in test [3], below 5.00.

With `COc1cc2ncc(-c3nc(N[C@H]4CNC[C@@H]4F)c(F)cc3F)n2nc1N1CCCC1=O` [Compound 24a, 1-(3-(3,5-difluoro-6-(((3S,4S)-4-fluoropyrrolidin-3-yl)amino)pyridin-2-yl)-7-methoxyimidazo[1,2-b]pyridazin-6-yl)pyrrolidin-2-one], the pIC50 is 9.00 in test [1], 7.96 in test [2] and 6.73 in test [3].

With `COc1cc2ncc(-c3nc(N[C@@H]4CCCNC4)ccc3C#N)n2nc1C1CC1` [Compound 30a, (R)-2-(6-cyclopropyl-7-methoxyimidazo[1,2-b]pyridazin-3-yl)-6-(piperidin-3-ylamino)nicotinonitrile], the pIC50 was 7.32 in test [1], 6.96 in test [2] and 5.64 in test [3].

For `COc1cc2ncc(-c3cc(Oc4ccccc4)cc(N[C@H]4CNCC[C@@H]4F)n3)n2nc1C1CC1` [Compound 61a, 6-(6-cyclopropyl-7-methoxyimidazo[1,2-b]pyridazin-3-yl)-N-((3S,4S)-4-fluoropiperidin-3-yl)-4-phenoxypyridin-2-amine], the pIC50 is 7.03 in test [1], below 5.00 in test [2] and below 5.00 in test [3].

`COc1cc2ncc(-c3cc(C4CC4)cc(N[C@H]4CNC[C@@H]4F)n3)n2nc1C1CC1` [Compound 57a, 4-cyclopropyl-6-(6-cyclopropyl-7-methoxyimidazo[1,2-b]pyridazin-3-yl)-N-((3S,4S)-4-fluoropyrrolidin-3-yl)pyridin-2-amine]: the pIC50 is 7.72 in test [1], below 5.00 in test [2] and below 5.00 in test [3].

As for `COc1cc2ncc(-c3nc(N[C@@H]4CCCNC4)c(C)cc3C)n2nc1C1CC1` [Compound 62a], the figures for the pIC50 in test [1], in test [2] and in test [3] were 5.85, below 5.00 and below 5.00, respectively.

Take `COc1cc2ncc(-c3cc(C)cc(N[C@H]4CNC[C@@H]4F)n3)n2nc1C1CC1` [Compound 50a, 6-(6-cyclopropyl-7-methoxyimidazo[1,2-b]pyridazin-3-yl)-N-((3S,4S)-4-fluoropyrrolidin-3-yl)-4-methylpyridin-2-amine]: the pIC50 is 8.70 in test [1], 5.28 in test [2] and 5.08 in test [3].

With `COc1cc2ncc(-c3nc(N[C@H]4CNCC[C@@H]4F)c(F)cc3F)n2nc1C1CCCC1` [Compound 18a, 6-(6-cyclopentyl-7-methoxyimidazo[1,2-b]pyridazin-3-yl)-3,5-difluoro-N-((3S,4S)-4-fluoropiperidin-3-yl)pyridin-2-amine], the figures for the pIC50 in test [1], in test [2] and in test [3] were above 9.30, 9.22 and 8.52, respectively.

As for `COc1cc2ncc(-c3cc(C4CC4)cc(N[C@H]4CNCC[C@@H]4F)n3)n2nc1C1CC1` [Compound 56a, 4-cyclopropyl-6-(6-cyclopropyl-7-methoxyimidazo[1,2-b]pyridazin-3-yl)-N-((3S,4S)-4-fluoropiperidin-3-yl)pyridin-2-amine], the results for the pIC50 in test [1], in test [2] and in test [3] were 8.70, 5.05 and below 5.00, respectively.

As for `COc1ccc(-c2cnc3cc(OC)c(C4CC4)nn23)nc1N[C@H]1CNC[C@@H]1F` [Compound 33a, 6-(6-cyclopropyl-7-methoxyimidazo[1,2-b]pyridazin-3-yl)-N-((3S,4S)-4-fluoropyrrolidin-3-yl)-3-methoxypyridin-2-amine], the figures for the pIC50 in test [1], in test [2] and in test [3] were above 9.30, 7.33 and below 5.00, respectively.

With `COc1ccc(-c2cnc3cc(OC)c(C4CC4)nn23)nc1N[C@H]1CNCC[C@@H]1F` [Compound 35a, 6-(6-cyclopropyl-7-methoxyimidazo[1,2-b]pyridazin-3-yl)-N-((3S,4S)-4-fluoropiperidin-3-yl)-3-methoxypyridin-2-amine], the pIC50 in test [1] is above 9.30; in test [2], 7.26; in test [3], below 5.00.

`COc1cc2ncc(-c3cc(-c4ccccc4)cc(N[C@H]4CNC[C@@H]4F)n3)n2nc1C1CC1` [Compound 54a, 6-(6-cyclopropyl-7-methoxyimidazo[1,2-b]pyridazin-3-yl)-N-((3S,4S)-4-fluoropyrrolidin-3-yl)-4-phenylpyridin-2-amine]: the pIC50 in test [1] was 6.02; in test [2] it was 5.19; in test [3] it was 5.02.

For the compound `COc1cc2ncc(-c3cc(Oc4ccccc4)cc(N[C@H]4CNC[C@@H]4F)n3)n2nc1C1CC1` [Compound 60a, 6-(6-cyclopropyl-7-methoxyimidazo[1,2-b]pyridazin-3-yl)-N-((3S,4S)-4-fluoropyrrolidin-3-yl)-4-phenoxypyridin-2-amine], the figures for the pIC50 in test [1], in test [2] and in test [3] were 6.56, below 5.00 and below 5.00, respectively.

Turning to `COc1cc2ncc(-c3nc(N[C@H]4CNC[C@@H]4F)c(F)cc3F)n2nc1C1CCCCC1` [Compound 19a, 6-(6-cyclohexyl-7-methoxyimidazo[1,2-b]pyridazin-3-yl)-3,5-difluoro-N-((3S,4S)-4-fluoropyrrolidin-3-yl)pyridin-2-amine], the pIC50 in test [1] was above 9.30; in test [2] it was 8.52; in test [3], 7.77.

Regarding `COc1cc2ncc(-c3cc(C)cc(N[C@H]4CNCC[C@@H]4F)n3)n2nc1C1CC1` [Compound 52a, 6-(6-cyclopropyl-7-methoxyimidazo[1,2-b]pyridazin-3-yl)-N-((3S,4S)-4-fluoropiperidin-3-yl)-4-methylpyridin-2-amine], the negative-log IC50 (pIC50) in test [1] was 9.00; in test [2], 5.76; in test [3] it was below 5.00.

For the origin of these results see US20250368648A1, “MULTI-CYCLIC IRAK AND FLT3 INHIBITING COMPOUNDS AND USES THEREOF” (CHILDREN'S HOSPITAL MEDICAL CENTER, priority 2022, published 2025).
